Measured values: patent publication US10806740B2, “Natural combination hormone replacement formulations and therapies” (TherapeuticsMD, Inc., priority 2012, dated 2020)
Each block holds one molecule with its values, some of them ahead of it.

Experiments:
Assay type in all cases: physicochemical
[1] = Estradiol solutions after addition of 7% water
Text: In addition to determining physical stability of the estradiol solutions over time, it is necessary to determine if the fill material will be stable during the encapsulation process. One way to test these preparations is with the addition of water to the fill mass. […].
All CAPMUL® PG8 containing formulations turned hazy on the addition of water.

[2] = Progesterone solubility in solvents
Text: . Thus, MIGLYOL® may be used in embodiments comprising a suspension of progesterone, though MIGLYOL®, standing alone, is not desirable for use in embodiments having fully solubilized progesterone and/or estradiol.

[3] = Particle size analysis with Beckman Device (laser diffraction); settings: Fraunhofer optical model
Experimental: Particle size may be determined in any suitable manner. For example, a Beckman Coulter LS 13 320 Laser Diffraction Particle Size Analyzer (the “Beckman Device”) may be used to determine particle size. As described above, particle size may be represented by various metrics, for example, through an X50 particle size, and/or X90 particle size, or similar descriptions of particle size.
For the purposes of this Example, a particle size analysis is conducted by using the Beckman Device. A sample API comprising micronized progesterone in accordance with various embodiments is provided for analysis.
Approximately 0.01 g of a sample API in accordance with various embodiments was combined with Coulter 1B and 10 mL of deionized water. Sonication was performed for 15 seconds. The Beckman Device, equipped with a ULM, performed analysis for 90 seconds. The Beckman Device was configured to use the Fraunhofer optical model. […] The Beckman Device also yielded that the mean particle size is 4.975 μm, the median particle size is 4.279 μm, the mode particle size is 6.453 μm, and the standard deviation is 3.956 μm.
A formulation sample having approximately 200 mg of micronized progesterone and 2 mg of estradiol was dispersed with oil. The Beckman Device, equipped with a MLM, performed analysis for 60 seconds. The Beckman Device was configured to use the Fraunhofer optical model.

- Results after addition of 7% water ([1]; estradiol 6 mg/g in CAPMUL MCM): without recrystallization
- Results after addition of 7% water ([1]; estradiol 6 mg/g in MIGLYOL 812:CAPMUL PG8 (75:25)): Precipitated
- Results after addition of 7% water ([1]; estradiol 6 mg/g in Polyethylene Glycol 400): without recrystallization
- Results after addition of 7% water ([1]; estradiol 12 mg/g in CAPMUL MCM): Clear
- Results after addition of 7% water ([1]; estradiol 12 mg/g in MIGLYOL 812:CAPMUL PG8 (50:50)): Hazy
- Results after addition of 7% water ([1]; estradiol 12 mg/g in Polyethylene Glycol 400): clear
- Results after addition of 7% water ([1]; estradiol 12 mg/g in TRANSCUTOL:MIGLYOL 812:CAPMUL PG8 (5:47:47)): Hazy
- Results after addition of 7% water ([1]; estradiol 12 mg/g in TRANSCUTOL:MIGLYOL 812:CAPMUL PG8 (5:65:28)): Hazy
Structure (SMILES): C[C@]12CC[C@@H]3c4ccc(O)cc4CC[C@H]3[C@@H]1CC[C@@H]2O [Estradiol, (17β)-estra-1,3,5(10)-triene-3,17-diol]

- Progesterone Solubility ([2]; in CAPMUL MCM): 73.4 mg/g
- Progesterone Solubility ([2]; in CAPMUL MCM:GELUCIRE 44/14 (6:3)): 57.4 mg/g
- Progesterone Solubility ([2]; in CAPMUL MCM:GELUCIRE 44/14 (6:4)): 57.4 mg/g
- Progesterone Solubility ([2]; in CAPMUL MCM:GELUCIRE 44/14 (7:3)): 70.5 mg/g
- Progesterone Solubility ([2]; in CAPMUL MCM:GELUCIRE 44/14 (9:1)): 86.4 mg/g
- Progesterone Solubility ([2]; in CAPMUL MCM:GELUCIRE 44/14 (9:1), listed as progesterone): approximately 86 mg/g
- Progesterone Solubility ([2]; in CAPMUL MCM, listed as progesterone): ~73 mg/g
- Progesterone Solubility ([2]; in CAPMUL PG8): 95 mg/g
- Progesterone Solubility ([2]; in MIGLYOL 812): 27.8 mg/g
- X25 particle size [3]: 1.590 μm
- X50 particle size [3]: 4.279 μm
- X75 particle size [3]: 7.442 μm
- mean particle size [3]: 4.975 μm
- median particle size [3]: 4.279 μm
- mode particle size [3]: 6.453 μm
Structure (SMILES): CC(=O)[C@H]1CC[C@H]2[C@@H]3CCC4=CC(=O)CC[C@]4(C)[C@H]3CC[C@]12C [Progesterone, pregn-4-ene-3,20-dione]
